# Reference: PMC4503722, “Novel Phenotypic Outcomes Identified for a Public Collection of Approved Drugs from a Publicly Accessible Panel of Assays” (PLoS ONE, 2015)
# Read-outs that look alike come from different tables or passages of the source.
# Tests used:
# INS-1E cells [1] = type: cell-based, rat; details: 0.1 mM glucose; for 0.1mMGluc_INS1E SecretionMod Act IC50/EC50: assay number 9
# INS-1E cells [2] = assay: cells; type: cell-based, rat
# [3] = tested on: tonic K+ channel activity in INS-1E cells; assay: cells; type: cell-based, rat; details: for 0.1mMGluc_INS1E FluxOR IC50/EC50: assay number 10; for IC50: Rattus norvegicus, INS-1E, read-out: K+ channel assay IC50
# HCT116 = assay: cells; type: cell-based; details: Homo sapiens
# [4] = tested on: nuclear β-catenin in C2C12 cells; assay: cells; type: cell-based; details: for EC50: Mus musculus; for WntCondMedia_bCatenin C2C12 IC50/EC50: assay number 5, concentration response
# [5] = tested on: HCT116 cells treated with a GSK3β inhibitor; assay: cells; type: cell-based; details: Homo sapiens
# SW480 = assay: cells; type: cell-based; details: Homo sapiens
# [6] = tested on: endothelial tube formation in co-cultures of ECFCs and ADSCs treated with VEGF; assay: cells; type: cell-based, human; details: for IC50: Homo sapiens, read-out: Anti-Angio IC50
# HeLa cells = assay: cells; type: cell-based; details: for EC50: Homo sapiens, HeLa, read-out: CellCycle G2/M; for Hela CellCycMod PI 2N IC50/EC50: assay number 14; for Hela CellCycMod PI 4N IC50/EC50: assay number 16; for Hela CellCycMod PI MI IC50/EC50: assay number 17; for Hela CellCycMod PI Cell Number IC50/EC50: assay number 18
# DLD-1 = assay: cells; type: cell-based; details: Homo sapiens, DLD-1, 72 h, read-out: DLD-1 viab. IC50
# NCI-H716 cells = assay: cells; type: cell-based, Human; details: Homo sapiens, NCI-H716, read-out: GLP1 sec. EC50
# hFLT3 = molecular target: T1, hFLT3 (Homo sapiens, UniProt P36888); assay: Cerep LANCE kinase assay hFLT3 (S1 assay 35); type: biochemical; details: assay number 35
# T1 construct: purchased Cerep (LANCE kinase assay platform, contract assay)
# T1 sequence (P36888 27-993): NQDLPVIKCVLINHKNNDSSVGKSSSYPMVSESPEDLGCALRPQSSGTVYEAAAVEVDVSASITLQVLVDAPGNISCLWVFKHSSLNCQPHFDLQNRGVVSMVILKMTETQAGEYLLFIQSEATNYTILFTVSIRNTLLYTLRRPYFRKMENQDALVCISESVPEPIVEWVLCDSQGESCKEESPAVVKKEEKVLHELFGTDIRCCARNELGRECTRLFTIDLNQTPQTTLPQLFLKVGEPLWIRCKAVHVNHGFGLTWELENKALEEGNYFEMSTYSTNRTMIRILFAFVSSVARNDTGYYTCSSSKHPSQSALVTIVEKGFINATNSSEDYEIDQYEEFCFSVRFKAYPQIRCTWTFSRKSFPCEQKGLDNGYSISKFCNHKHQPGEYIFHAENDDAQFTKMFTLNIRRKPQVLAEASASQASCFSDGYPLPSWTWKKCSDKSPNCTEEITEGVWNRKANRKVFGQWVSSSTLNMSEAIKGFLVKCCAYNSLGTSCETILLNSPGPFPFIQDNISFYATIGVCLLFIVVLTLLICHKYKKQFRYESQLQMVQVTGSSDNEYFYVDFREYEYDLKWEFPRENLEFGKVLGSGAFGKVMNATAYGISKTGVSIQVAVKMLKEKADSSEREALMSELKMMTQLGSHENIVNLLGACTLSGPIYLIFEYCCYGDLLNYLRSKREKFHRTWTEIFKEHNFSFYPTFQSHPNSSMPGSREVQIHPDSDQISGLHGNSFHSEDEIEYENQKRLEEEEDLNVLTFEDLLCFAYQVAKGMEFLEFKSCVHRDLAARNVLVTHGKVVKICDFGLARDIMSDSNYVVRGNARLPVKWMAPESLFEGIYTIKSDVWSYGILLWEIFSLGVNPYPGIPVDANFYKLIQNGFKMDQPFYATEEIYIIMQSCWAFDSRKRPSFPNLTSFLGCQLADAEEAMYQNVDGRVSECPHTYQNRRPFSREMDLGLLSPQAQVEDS
# hJAK2 = molecular target: T2, hJAK2 (Homo sapiens, UniProt O60674); assay: Cerep LANCE kinase assay hJAK2 (S1 assay 33); type: biochemical; details: assay number 33
# T2 construct: purchased Cerep (LANCE kinase assay platform, contract assay)
# T2 sequence (O60674 whole entry): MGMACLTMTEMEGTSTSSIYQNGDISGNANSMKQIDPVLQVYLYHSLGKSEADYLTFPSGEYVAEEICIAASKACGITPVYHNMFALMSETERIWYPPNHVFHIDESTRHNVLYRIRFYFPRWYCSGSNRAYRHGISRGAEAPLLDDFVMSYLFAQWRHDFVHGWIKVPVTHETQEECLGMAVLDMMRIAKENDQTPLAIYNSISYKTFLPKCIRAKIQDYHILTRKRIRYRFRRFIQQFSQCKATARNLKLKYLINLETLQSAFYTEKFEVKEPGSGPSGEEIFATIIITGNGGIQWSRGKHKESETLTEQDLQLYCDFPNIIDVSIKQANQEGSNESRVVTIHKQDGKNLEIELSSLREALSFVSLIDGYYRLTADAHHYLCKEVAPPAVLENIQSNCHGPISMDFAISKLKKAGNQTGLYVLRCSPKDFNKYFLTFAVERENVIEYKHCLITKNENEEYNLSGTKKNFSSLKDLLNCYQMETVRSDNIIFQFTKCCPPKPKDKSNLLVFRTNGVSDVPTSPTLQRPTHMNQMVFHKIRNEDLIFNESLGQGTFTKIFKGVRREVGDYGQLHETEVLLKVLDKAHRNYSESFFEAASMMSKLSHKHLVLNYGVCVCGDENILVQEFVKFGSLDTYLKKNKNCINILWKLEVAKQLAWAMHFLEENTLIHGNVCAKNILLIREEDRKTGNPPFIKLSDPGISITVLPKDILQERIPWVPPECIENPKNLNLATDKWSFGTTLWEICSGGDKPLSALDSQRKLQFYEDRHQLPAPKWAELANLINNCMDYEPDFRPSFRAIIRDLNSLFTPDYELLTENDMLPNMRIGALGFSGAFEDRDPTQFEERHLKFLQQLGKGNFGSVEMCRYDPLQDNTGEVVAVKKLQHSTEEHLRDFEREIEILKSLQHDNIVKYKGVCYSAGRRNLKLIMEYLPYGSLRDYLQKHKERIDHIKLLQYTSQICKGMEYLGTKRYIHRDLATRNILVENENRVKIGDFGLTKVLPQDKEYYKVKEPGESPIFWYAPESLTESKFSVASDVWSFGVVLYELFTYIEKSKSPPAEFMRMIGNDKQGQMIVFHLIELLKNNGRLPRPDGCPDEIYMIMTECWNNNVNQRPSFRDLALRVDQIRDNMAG
# hKDR = molecular target: T3, hKDR (Homo sapiens, UniProt P35968); assay: Cerep LANCE kinase assay hKDR (S1 assay 32); type: biochemical; details: assay number 32
# T3 construct: purchased Cerep (LANCE kinase assay platform, contract assay)
# T3 sequence (P35968 20-1356): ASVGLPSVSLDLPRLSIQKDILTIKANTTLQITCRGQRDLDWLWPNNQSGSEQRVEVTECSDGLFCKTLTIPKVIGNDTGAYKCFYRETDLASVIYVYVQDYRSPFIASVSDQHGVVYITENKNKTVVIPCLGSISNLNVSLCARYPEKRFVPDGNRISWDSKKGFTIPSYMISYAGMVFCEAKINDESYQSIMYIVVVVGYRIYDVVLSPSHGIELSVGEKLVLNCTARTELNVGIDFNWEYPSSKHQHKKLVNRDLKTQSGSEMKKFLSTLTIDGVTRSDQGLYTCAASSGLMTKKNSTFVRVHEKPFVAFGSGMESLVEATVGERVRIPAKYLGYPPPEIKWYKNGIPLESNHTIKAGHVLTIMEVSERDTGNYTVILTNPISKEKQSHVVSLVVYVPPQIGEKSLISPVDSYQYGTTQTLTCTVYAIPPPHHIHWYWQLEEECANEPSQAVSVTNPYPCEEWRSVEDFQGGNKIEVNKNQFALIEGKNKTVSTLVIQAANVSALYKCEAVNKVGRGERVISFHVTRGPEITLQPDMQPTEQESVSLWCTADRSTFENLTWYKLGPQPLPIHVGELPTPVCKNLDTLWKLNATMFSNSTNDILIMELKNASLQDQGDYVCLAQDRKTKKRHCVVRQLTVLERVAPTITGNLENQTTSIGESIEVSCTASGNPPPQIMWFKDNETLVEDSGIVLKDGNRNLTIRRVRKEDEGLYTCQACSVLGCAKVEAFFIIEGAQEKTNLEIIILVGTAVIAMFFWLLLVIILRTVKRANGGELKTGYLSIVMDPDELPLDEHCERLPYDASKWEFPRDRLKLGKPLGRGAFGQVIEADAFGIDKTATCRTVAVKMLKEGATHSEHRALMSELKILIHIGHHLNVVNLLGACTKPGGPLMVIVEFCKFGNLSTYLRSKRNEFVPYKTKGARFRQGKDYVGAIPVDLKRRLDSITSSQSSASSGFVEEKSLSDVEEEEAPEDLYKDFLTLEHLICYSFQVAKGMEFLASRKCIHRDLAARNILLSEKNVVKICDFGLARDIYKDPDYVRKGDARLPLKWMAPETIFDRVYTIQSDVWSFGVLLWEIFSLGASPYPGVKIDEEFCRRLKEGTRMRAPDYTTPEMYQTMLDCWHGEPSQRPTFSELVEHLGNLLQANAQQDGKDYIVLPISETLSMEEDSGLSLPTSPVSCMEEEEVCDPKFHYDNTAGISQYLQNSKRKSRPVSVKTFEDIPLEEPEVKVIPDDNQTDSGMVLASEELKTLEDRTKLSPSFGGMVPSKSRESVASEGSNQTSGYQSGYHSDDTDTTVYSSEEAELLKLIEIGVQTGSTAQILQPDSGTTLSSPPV
# hGSK3b = molecular target: T4, hGSK3b (Homo sapiens, UniProt P49841); assay: Cerep LANCE kinase assay hGSK3b (S1 assay 34); type: biochemical; details: assay number 34
# T4 construct: purchased Cerep (LANCE kinase assay platform, contract assay)
# T4 sequence (P49841 whole entry): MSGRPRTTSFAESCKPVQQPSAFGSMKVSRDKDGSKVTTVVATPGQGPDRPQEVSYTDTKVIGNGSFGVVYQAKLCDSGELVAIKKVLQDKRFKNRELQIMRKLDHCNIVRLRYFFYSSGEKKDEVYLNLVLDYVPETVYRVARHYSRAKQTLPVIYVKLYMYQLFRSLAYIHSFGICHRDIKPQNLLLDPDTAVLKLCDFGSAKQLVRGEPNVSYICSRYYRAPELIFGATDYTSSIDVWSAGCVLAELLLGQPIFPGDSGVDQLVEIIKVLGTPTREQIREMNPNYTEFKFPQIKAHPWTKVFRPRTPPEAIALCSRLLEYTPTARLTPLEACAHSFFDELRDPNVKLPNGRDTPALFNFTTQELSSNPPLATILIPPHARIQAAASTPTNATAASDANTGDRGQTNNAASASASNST
# [7] = tested on: alkaline phosphatase (ALP) activity in C2C12 cells; type: cell-based; details: assay number 6; concentration response
# [8] = tested on: ECFC/ADSC co-culture cell nuclei number
# hp70S6K1 (RPS6KB1) = molecular target: T5, hp70S6K1 (RPS6KB1) (Homo sapiens, UniProt P23443); assay: Cerep LANCE kinase assay hp70S6K1 (S1 assay 31); type: biochemical; details: assay number 31
# T5 construct: purchased Cerep (LANCE kinase assay platform, contract assay)
# T5 sequence (P23443 whole entry): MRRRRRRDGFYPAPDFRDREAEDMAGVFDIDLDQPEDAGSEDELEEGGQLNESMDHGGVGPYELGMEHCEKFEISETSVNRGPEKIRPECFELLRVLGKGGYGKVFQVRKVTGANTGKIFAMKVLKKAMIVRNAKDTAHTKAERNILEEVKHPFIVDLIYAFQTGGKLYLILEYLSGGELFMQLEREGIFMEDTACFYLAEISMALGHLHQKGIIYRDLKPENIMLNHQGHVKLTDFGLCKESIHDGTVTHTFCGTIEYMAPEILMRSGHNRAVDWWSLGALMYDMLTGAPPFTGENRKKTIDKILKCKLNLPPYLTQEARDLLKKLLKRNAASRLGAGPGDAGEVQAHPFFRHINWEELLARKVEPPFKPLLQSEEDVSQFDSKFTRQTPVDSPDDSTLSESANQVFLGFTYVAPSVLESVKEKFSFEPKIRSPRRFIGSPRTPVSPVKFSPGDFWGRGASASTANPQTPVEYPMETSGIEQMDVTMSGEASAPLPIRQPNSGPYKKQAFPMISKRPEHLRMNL
# 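For 5mMGluc INS1E SecretionMod IC50/EC50 in this document: secreted insulin quantified by homogeneous immunoassay.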
# 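For IC50/EC50, 5mMGluc INS1E SecretionMod (assay number 8) in this document: secreted insulin quantified by homogeneous immunoassay.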
smiles,measurement,setting,value
CCN(CC)CCOCCOC(=O)C1(c2ccccc2)CCCC1 [NCGC00024595-08],0.1mMGluc_INS1E SecretionMod Act IC50/EC50,INS-1E cells [1],> 33.33 µM
same,5mMGluc_INS1E SecretionMod IC50/EC50,INS-1E cells [2]; assay number 8; 5 mM glucose,7.687 µM
same,0.1mMGluc_INS1E FluxOR IC50/EC50,[3]; 0.1 mM glucose,4.656 µM
O=c1[nH]c2ccccc2n1CCCN1CCC(n2c(=O)[nH]c3cc(Cl)ccc32)CC1 [NCGC00014670-17],"IC50/EC50, 0.1mMGluc_INS1E SecretionMod Act (assay number 9)",INS-1E cells [1],> 33.33 µM
same,"IC50/EC50, 5mMGluc_INS1E SecretionMod (assay number 8)",INS-1E cells [2]; 5 mM glucose,12.4283 µM
same,"IC50/EC50, 0.1mMGluc_INS1E FluxOR (assay number 10)",[3]; 0.1 mM glucose,36.5303 µM
CN1CCCN(C(c2ccccc2)c2ccc(Cl)cc2)CC1 (stereo not drawn) [NCGC00018271-07],0.1mMGluc_INS1E SecretionMod Act IC50/EC50,INS-1E cells [1],> 33.33 µM
same,5mMGluc_INS1E SecretionMod IC50/EC50,INS-1E cells [2]; assay number 8; 5 mM glucose,> 3.703 µM
same,0.1mMGluc_INS1E FluxOR IC50/EC50,[3]; 0.1 mM glucose,15.6503 µM
"CN(C)CCC=C1c2ccccc2CCc2ccccc21 [amitriptyline, reference compound]",IC50,"HCT116; HCT-116, 72 h, read-out: HCT-116 viab. IC50",> 20 µM
same,EC50,"[4]; C2C12, read-out: Wnt pot. EC50",> 10 µM
same,IC50,"[5]; HCT-116, 72 h, read-out: HCT-116 (GSK3β) viab. IC50",> 20 µM
same,IC50,"SW480; SW480, 72 h, read-out: SW480 viab. IC50",10.1 µM
same,IC50,"SW480; SW480, read-out: Basal_Viability ATP SW480",10.1 µM
same,EC50,"INS-1E cells [2]; Rattus norvegicus, INS-1E, read-out: Ins. sec. EC50",3 µM
same,EC50,"INS-1E cells [2]; Rattus norvegicus, INS-1E, read-out: Insulin Secretion",3 µM
same,IC50,[6],> 10 µM
same,IC50,[3],6.2 µM
same,EC50,HeLa cells,> 10 µM
same,IC50,DLD-1,> 20 µM
same,EC50,NCI-H716 cells,> 10 µM
"CCN(CC)CCOc1ccccc1C(=O)CCc1ccccc1 [etafenone, reference compound]",IC50,"HCT116; HCT-116, 72 h, read-out: HCT-116 viab. IC50, Table 2, basal, 72 h, Cell TiterGlo, non-adherent, 20 coded",11.2 µM
same,IC50,"HCT116; HCT-116, basal, HCT116, read-out: Basal_Viability ATP HCT116",11.2 µM
same,EC50,"[4]; C2C12, Table 2, C2C12, […], 20 / 20.1 coded, read-out: Wnt pot. EC50",> 10 µM
same,IC50,"[5]; HCT-116, read-out: HCT-116 (GSK3β) viab. IC50, Table 2, GSK3β inhibitor LY2090314 20 nM, 72 h, Cell TiterGlo, 20 coded",> 20 µM
same,IC50,"SW480; SW480, 72 h, Table 2, 72 h, Cell TiterGlo, non-adherent, 20 coded, read-out: SW480 viab. IC50",16.9 µM
same,IC50,"SW480; SW480, basal, SW480, read-out: Basal_Viability ATP SW480",16.9 µM
same,EC50,"INS-1E cells [2]; Rattus norvegicus, INS-1E; read-out: Ins. sec. EC50",3.9 µM
same,EC50,"INS-1E cells [2]; Rattus norvegicus, INS-1E; read-out: Insulin Secretion",3.89 µM
same,IC50,"[6]; Table 2, primary assay tube area, 20 = no response in concentration-response, 20.1 = inactive in single concentration testing",> 10 µM
same,IC50,"[3]; 0.1 mM glucose, thallium flux",6.7 µM
same,G2/M IC50 / EC50,HeLa cells,20 (values shown as 20 indicate that the compound was tested in concentration-response and showed no response at the highest concentration tested (e.g. IC50 > 20 μM))
same,EC50,"HeLa cells; S2 Table, 20 = no response at highest concentration",> 10 µM
same,IC50,"DLD-1; Table 2, 72 h, Cell TiterGlo, non-adherent, 20 coded",> 20 µM
CCN(CC)CCCN(c1ccccc1)C1Cc2ccccc2C1.Cl [NCGC00167576-02],0.1mMGluc_INS1E SecretionMod Act IC50/EC50,INS-1E cells [1],> 33.33 µM
same,5mMGluc_INS1E SecretionMod IC50/EC50,INS-1E cells [2]; assay number 8; 5 mM glucose,7.1279 µM
same,0.1mMGluc_INS1E FluxOR IC50/EC50,[3]; 0.1 mM glucose,14.9742 µM
CSc1ccc2c(c1)C(N1CCN(C)CC1)Cc1ccccc1S2 (stereo not drawn) [NCGC00024665-10],0.1mMGluc_INS1E SecretionMod Act IC50/EC50,INS-1E cells [1],> 33.33 µM
same,hFLT3 LANCE IC50/EC50,hFLT3,> 20 µM
same,WntCondMedia_bCatenin C2C12 IC50/EC50,[4],> 20 µM
same,hJAK2 LANCE IC50/EC50,hJAK2,> 20 µM
same,hKDR LANCE IC50/EC50,hKDR,> 20 µM
same,5mMGluc_INS1E SecretionMod IC50/EC50,INS-1E cells [2]; assay number 8; 5 mM glucose,2.944 µM
same,hGSK3b LANCE IC50/EC50,hGSK3b,> 20 µM
same,VEGF_ADSC\ECFC Angio CD31 TubeArea IC50/EC50,[6],> 10 µM
same,WntCondMedia_Alk Phos C2C12 IC50/EC50,[7],> 20 µM
same,VEGF_ADSC\ECFC Angio Hoechst NucArea IC50/EC50,[8],> 10 µM
same,Hela CellCycMod PI 2N IC50/EC50,HeLa cells,> 10 µM
same,Hela CellCycMod PI 4N IC50/EC50,HeLa cells,> 10 µM
same,Hela CellCycMod PI MI IC50/EC50,HeLa cells,> 10 µM
same,Hela CellCycMod PI Cell Number IC50/EC50,HeLa cells,> 10 µM
same,hp70S6K1 LANCE IC50/EC50,hp70S6K1 (RPS6KB1),> 20 µM
CCC(=O)c1ccc2c(c1)N(CCCN(C)C)c1ccccc1S2.Cl [NCGC00015838-06],0.1mMGluc_INS1E SecretionMod Act IC50/EC50,INS-1E cells [1],> 33.33 µM
same,5mMGluc_INS1E SecretionMod IC50/EC50,INS-1E cells [2]; assay number 8; 5 mM glucose,10.7311 µM
same,0.1mMGluc_INS1E FluxOR IC50/EC50,[3]; 0.1 mM glucose,25.7434 µM
Nc1ccc2cc3ccc(N)cc3nc2c1 [NCGC00166245-04],0.1mMGluc_INS1E SecretionMod Act IC50/EC50,INS-1E cells [1],> 33.33 µM
same,hFLT3 LANCE IC50/EC50,hFLT3,> 20 µM
same,WntCondMedia_bCatenin C2C12 IC50/EC50,[4],5.9868 µM
same,hJAK2 LANCE IC50/EC50,hJAK2,> 20 µM
same,hKDR LANCE IC50/EC50,hKDR,> 20 µM
same,5mMGluc_INS1E SecretionMod IC50/EC50,INS-1E cells [2]; assay number 8; 5 mM glucose,20.6221 µM
same,hGSK3b LANCE IC50/EC50,hGSK3b,> 20 µM
same,WntCondMedia_Alk Phos C2C12 IC50/EC50,[7],> 20 µM
same,Hela CellCycMod PI 2N IC50/EC50,HeLa cells,> 10 µM
same,Hela CellCycMod PI S Phase IC50/EC50,"HeLa cells; assay number 15, S phase",3.4397 µM
same,Hela CellCycMod PI 4N IC50/EC50,HeLa cells,> 10 µM
same,Hela CellCycMod PI MI IC50/EC50,HeLa cells,2.4689 µM
same,Hela CellCycMod PI Cell Number IC50/EC50,HeLa cells,1.3426 µM
same,hp70S6K1 LANCE IC50/EC50,hp70S6K1 (RPS6KB1),> 20 µM
